The results in this text go back to patent US11458123B2 (Arvinas, Inc., priority 2016, dated 2022).

The first experiment concerns tau protein. As to the kind of experiment: Tau protein in vitro degradation assay (Western blot, Tau-13 antibody). In kind it is cell-based, human. To be noted: SK-N-SH cells; 72 hours of incubation; tested at 300 nM, 100 nM, 33 nM and 11 nM; Western blot, Tau-13 antibody. The essentials: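 Tau degradation read by Tau-13 Western blot (detects all human tau forms) of SDS-PAGE-resolved lysates from SK-N-SH cells. Cells were plated at least 18 h before 72 h exposure to PROTACs at either 1000/300/100 nM or 300/100/33/11 nM.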
(Immunoblotting shows a protein as a band on a membrane.)
Turning to `Cn1c2ccncc2c2ccc(-c3ccc(OCCOCCOCCOCCOCCOCCOc4ccc5c(c4)C(=O)N(C4CCC(=O)NC4=O)C5=O)nc3)cc21` (stereo not drawn) [Compound 131, 2-(2,6-dioxopiperidin-3-yl)-5-((17-((5-(5-methyl-5H-pyrido[4,3-b]indol-7-yl)pyridin-2-yl)oxy)-3,6,9,12,15-pentaoxaheptadecyl)oxy)isoindoline-1,3-dione], the “Degradation activity* (highest amount of degradation observed at any dosage; tau protein remaining)” value is reported as “A (≤50% tau protein remaining after 72 hours of incubation with the test compound)”.

Turning to `Cn1c2ccncc2c2ccc(-c3cnc(OCCOCCOCCOCCOCCOc4ccc5c(c4)C(=O)N(C4CCC(=O)NC4=O)C5=O)cc3C(F)(F)F)cc21` (stereo not drawn) [Compound 69, 2-(2,6-dioxopiperidin-3-yl)-5-((14-((5-(5-methyl-5H-pyrido[4,3-b]indol-7-yl)-4-(trifluoromethyl)pyridin-2-yl)oxy)-3,6,9,12-tetraoxatetradecyl)oxy)isoindoline-1,3-dione], the “Degradation activity* (highest amount of degradation observed at any dosage; tau protein remaining)” value is “A (≤50% tau protein remaining after 72 hours of incubation with the test compound)”.

Turning to `Cc1ncsc1-c1ccc([C@H](C)NC(=O)[C@@H]2C[C@@H](O)CN2C(=O)[C@@H](NC(=O)COCCOCCOCCOCCOc2ncc(-c3ccc4c(c3)[nH]c3ccncc34)cc2C(F)(F)F)C(C)(C)C)cc1` [Compound 119, (2S,4R)-1-((S)-17-((5-(5H-pyrido[4,3-b]indol-7-yl)-3-(trifluoromethyl)pyridin-2-yl)oxy)-2-(tert-butyl)-4-oxo-6,9,12,15-tetraoxa-3-azaheptadecanoyl)-4-hydroxy-N—((S)-1-(4-(4-methylthiazol-5-yl)phenyl)ethyl)pyrrolidine-2-carboxamide], the “Degradation activity* (highest amount of degradation observed at any dosage; tau protein remaining)” value is on record as “C (>80% tau protein remaining after 72 hours of incubation with the test compound)”.

For `O=C1CCC(N2C(=O)c3ccc(OCC#Cc4ccc(O[C@H]5C[C@@H](Oc6ccc(-c7ccc8c(c7)[nH]c7ccncc78)cn6)C5)cn4)cc3C2=O)C(=O)N1` (stereo partly drawn) [Compound 183, 5-((3-(5-((1s,3 s)-3-((5-(5H-pyrido[4,3-b]indol-7-yl)pyridin-2-yl)oxy)cyclobutoxy)pyridin-2-yl)prop-2-yn-1-yl)oxy)-2-(2,6-dioxopiperidin-3-yl)isoindoline-1,3-dione], the “Degradation activity (tau protein remaining; highest amount of degradation observed at any dosage)” value is recorded as “A (≤50% tau protein remaining after 72 hours of incubation with the test compound)”.

With `O=C1CCC(N2C(=O)c3ccc(OCCCCCN4CCN(CCO[C@H]5C[C@@H](Oc6ccc(-c7ccc8c(c7)[nH]c7ccncc78)cn6)C5)CC4)cc3C2=O)C(=O)N1` (stereo partly drawn) [Compound 56, 5-((5-(4-(2-((1 s,3 s)-3-((5-(5H-pyrido[4,3-b]indol-7-yl)pyridin-2-yl)oxy)cyclobutoxy)ethyl)piperazin-1-yl)pentyl)oxy)-2-(2,6-dioxopiperidin-3-yl)isoindoline-1,3-dione], the “Degradation activity* (highest amount of degradation observed at any dosage; tau protein remaining)” value is listed as “C (>80% tau protein remaining after 72 hours of incubation with the test compound)”.

Turning to `Cc1ncsc1-c1ccc([C@H](C)NC(=O)[C@@H]2C[C@@H](O)CN2C(=O)[C@@H](NC(=O)COCCOc2ccc(-c3ccc4c(c3)[nH]c3ccncc34)cn2)C(C)(C)C)cc1` [Compound 120, (2S,4R)-1-((S)-2-(2-(2-((5-(5H-pyrido[4,3-b]indol-7-yl)pyridin-2-yl)oxy)ethoxy)acetamido)-3,3-dimethylbutanoyl)-4-hydroxy-N—((S)-1-(4-(4-methylthiazol-5-yl)phenyl)ethyl)pyrrolidine-2-carboxamide], the “Degradation activity* (highest amount of degradation observed at any dosage; tau protein remaining)” value is “C (>80% tau protein remaining after 72 hours of incubation with the test compound)”.

As to `Cn1c2ccncc2c2ccc(-c3ccc(O[C@H]4C[C@H](OC5CCN(CCCCCOc6ccc7c(c6)C(=O)N(C6CCC(=O)NC6=O)C7=O)CC5)C4)nc3)cc21` (stereo partly drawn) [Compound 82, 2-(2,6-dioxopiperidin-3-yl)-5-((5-(4-((1r,3r)-3-((5-(5-methyl-5H-pyrido[4,3-b]indol-7-yl)pyridin-2-yl)oxy)cyclobutoxy)piperidin-1-yl)pentyl)oxy)isoindoline-1,3-dione], the “Degradation activity* (highest amount of degradation observed at any dosage; tau protein remaining)” value was “C (>80% tau protein remaining after 72 hours of incubation with the test compound)”.

In the case of `Cc1ncsc1-c1ccc(CNC(=O)[C@@H]2C[C@@H](O)CN2C(=O)[C@H](C(C)C)N2Cc3ccccc3C2=O)c(OCCOc2ccc(-c3ccc4c(c3)[nH]c3ccncc34)cn2)c1` [Compound 185, (2S,4R)—N-(2-(2-((5-(5H-pyrido[4,3-b]indol-7-yl)pyridin-2-yl)oxy)ethoxy)-4-(4-methylthiazol-5-yl)benzyl)-4-hydroxy-1-((S)-3-methyl-2-(1-oxoisoindolin-2-yl)butanoyl)pyrrolidine-2-carboxamide], the “Degradation activity (tau protein remaining; highest amount of degradation observed at any dosage)” value is “C (>80% tau protein remaining after 72 hours of incubation with the test compound)”.

In the case of `Cn1c2ccncc2c2ccc(-c3ccc(O[C@H]4C[C@H](OCCCCCCN5CCN(c6ccc7c(c6)C(=O)N(C6CCC(=O)NC6=O)C7=O)CC5C(F)(F)F)C4)nc3)cc21` (stereo partly drawn) [Compound 96, 2-(2,6-dioxopiperidin-3-yl)-5-(4-(6-((1r,3r)-3-((5-(5-methyl-5H-pyrido[4,3-b]indol-7-yl)pyridin-2-yl)oxy)cyclobutoxy)hexyl)-3-(trifluoromethyl)piperazin-1-yl)isoindoline-1,3-dione], the “Degradation activity* (highest amount of degradation observed at any dosage; tau protein remaining)” value is “B (≤80% and >50% tau protein remaining after 72 hours of incubation with the test compound)”.

On to `Cn1c2ccncc2c2ccc(-c3ccc(O[C@H]4C[C@H](Oc5ccc(C#CCOCCOc6ccc7c(c6)C(=O)N(C6CCC(=O)NC6=O)C7=O)nc5)C4)nc3)cc21` (stereo partly drawn) [Compound 179, 2-(2,6-dioxopiperidin-3-yl)-5-(2-((3-(5-((1r,3r)-3-((5-(5-methyl-5H-pyrido[4,3-b]indol-7-yl)pyridin-2-yl)oxy)cyclobutoxy)pyridin-2-yl)prop-2-yn-1-yl)oxy)ethoxy)isoindoline-1,3-dione], for which the “Degradation activity (tau protein remaining; highest amount of degradation observed at any dosage)” value is “A (≤50% tau protein remaining after 72 hours of incubation with the test compound)”.

Staying with this experiment, now noted: SK-N-SH cells; 72 hours of incubation; tested at 1000 nM, 300 nM and 100 nM.
As to `O=C1CCC(N2C(=O)c3cccc(NCCOCCOCCOc4ccc(-c5ccc6c(c5)[nH]c5ccncc56)cn4)c3C2=O)C(=O)N1` (stereo not drawn) [Compound 3, 4-(2-(2-(2-(5-(5H-pyrido[4,3-b]indol-7-yl)pyridin-2-yloxy)ethoxy)ethoxy)ethylamino)-2-(2,6-dioxopiperidin-3-yl)isoindoline-1,3-dione], the “Activity* (highest amount of degradation observed at any dosage, as tau protein remaining)” value is recorded as “A (≤50% tau protein remaining after 72 hours of incubation with the test compound)”.

On to `O=C1CCC(N2C(=O)c3cccc(NCCOCCOCCOCCOc4ccc(-c5ccc6c(c5)[nH]c5ccncc56)cn4)c3C2=O)C(=O)N1` (stereo not drawn) [Compound 2, 4-(2-(2-(2-(2-(5-(5H-pyrido[4,3-b]indol-7-yl)pyridin-2-yloxy)ethoxy)ethoxy)ethoxy)ethylamino)-2-(2,6-dioxopiperidin-3-yl)isoindoline-1,3-dione], for which the “Activity* (highest amount of degradation observed at any dosage, as tau protein remaining)” value is “A (≤50% tau protein remaining after 72 hours of incubation with the test compound)”.
